In patent US5472942A, “Anti-thrombins” (priority 1988, dated 1995):

Test system: human blood
Assay: Partial thromboplastic time
Conditions: equivalent doses; anti-thrombin of the invention compared with hirudin
Excerpt: The anti-thrombin according to the invention and hirudin do however, have similar partial thromboplastic times for equivalent doses.

In the case of “hirudin: thrombin-specific polypeptide of 65 amino acids from Hirudo medicinalis [reference compound]”, the partial thromboplastic times is reported as “similar”.
